Source: PubChem BioAssay (NCI)
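48-hour exposure; five concentrations; linearly interpolated endpoints. TGI denotes the concentration required for complete inhibition of growth.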

Assays:
Test in all cases: NCI-60 cell line screen, 48 h
HCT-116 colon = system: HCT-116 colon
DU-145 prostate = system: DU-145 prostate
MOLT-4 leukemia = system: MOLT-4 leukemia
LOX IMVI melanoma = system: LOX IMVI melanoma
HS 578T breast = system: HS 578T breast
HCT-15 colon = system: HCT-15 colon
NCI-H460 lung = system: NCI-H460 lung
MALME-3M melanoma = system: MALME-3M melanoma
UACC-257 melanoma = system: UACC-257 melanoma
ACHN renal = system: ACHN renal
CCRF-CEM leukemia = system: CCRF-CEM leukemia
RPMI-8226 leukemia = system: RPMI-8226 leukemia
RXF 393 renal = system: RXF 393 renal
SK-MEL-28 melanoma = system: SK-MEL-28 melanoma
SW-620 colon = system: SW-620 colon
KM12 colon = system: KM12 colon
OVCAR-4 ovarian = system: OVCAR-4 ovarian
SNB-75 CNS = system: SNB-75 CNS
EKVX NSCLC = system: EKVX NSCLC
M14 melanoma = system: M14 melanoma

Row | Structure (SMILES) | TGI (HCT-116 colon) [µM] | TGI (DU-145 prostate) [µM] | TGI (MOLT-4 leukemia) [µM] | TGI (LOX IMVI melanoma) [µM] | TGI (HS 578T breast) [µM] | TGI (HCT-15 colon) [µM] | TGI (NCI-H460 lung) [µM] | TGI (MALME-3M melanoma) [µM] | TGI (UACC-257 melanoma) [µM] | TGI (ACHN renal) [µM] | TGI (CCRF-CEM leukemia) [µM] | TGI (RPMI-8226 leukemia) [µM] | TGI (RXF 393 renal) [µM] | TGI (SK-MEL-28 melanoma) [µM] | TGI (SW-620 colon) [µM] | TGI (KM12 colon) [µM] | TGI (OVCAR-4 ovarian) [µM] | TGI (SNB-75 CNS) [µM] | TGI (EKVX NSCLC) [µM] | TGI (M14 melanoma) [µM]
1 | CCN1CCC(O)(c2ccc(O)cc2)C(C(=O)c2ccc(O)cc2)C1 (stereo not given) | 54.9 | 60 | 46 | 27.4 | > 100 | 32.1 | > 100 | 38.8 | 32.4 | 34 | 30 | 33.4 | 30.7 | 31.7 | 12.3 | 45.4 | 68.8 | 60.1 | 51.1 | 36.4
2 | O=[N+]([O-])C(=C/c1cccs1)/C(=C\c1cccs1)[N+](=O)[O-] | 2.49 | 3.53 | 1.3 | 0.688 | 50.7 | 0.614 | 5.31 | 4.82 | 3.46 | 2.68 | 0.276 | 1.14 | 0.486 | 2.32 | 21.2 | 13.4 | 7.41 | > 95.2 | > 32.4 | 6.88
